Test system: P12-Ichikawa
Assay: cell viability relative to DMSO control; higher = less cytotoxic
Details: 48 h
Method in brief: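 Viability is expressed as a percentage of DMSO wells within each plate, and cell-free wells serve as background. Seeding densities in the 1536-well plates (5 μl) were 500 cells/well for NOMO1 or SEM leukemia cells and 1000 cells/well for P12-Ichikawa. Each line was adapted for at least four passages in each medium. Library compounds in DMSO were pin-dosed at 47 μM to 0.79 nM (11 points, threefold), and CellTiter-Glo One luminescence was read after 48 h at 37°C.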

[1] = HPLM + 10% dialyzed FBS, 0.000781 µM
[2] = HPLM + 10% dialyzed FBS, 0.00234 µM
[3] = HPLM + 10% dialyzed FBS, 0.00702 µM
[4] = HPLM + 10% dialyzed FBS, 0.0211 µM
[5] = HPLM + 10% dialyzed FBS, 0.0632 µM
[6] = HPLM + 10% dialyzed FBS, 0.19 µM
[7] = HPLM + 10% dialyzed FBS, 0.569 µM
[8] = HPLM + 10% dialyzed FBS, 1.71 µM
[9] = HPLM + 10% dialyzed FBS, 5.12 µM
[10] = HPLM + 10% dialyzed FBS, 15.4 µM
[11] = HPLM + 10% dialyzed FBS, 46.1 µM
[12] = RPMI 5 mM glucose + 10% FBS, 0.000781 µM
[13] = RPMI 5 mM glucose + 10% FBS, 0.00234 µM
[14] = RPMI 5 mM glucose + 10% FBS, 0.00702 µM
[15] = RPMI 5 mM glucose + 10% FBS, 0.0211 µM
[16] = RPMI 5 mM glucose + 10% FBS, 0.0632 µM
[17] = RPMI 5 mM glucose + 10% FBS, 0.19 µM
[18] = RPMI 5 mM glucose + 10% FBS, 0.569 µM
[19] = RPMI 5 mM glucose + 10% FBS, 1.71 µM
[20] = RPMI 5 mM glucose + 10% FBS, 5.12 µM
[21] = RPMI 5 mM glucose + 10% FBS, 15.4 µM
[22] = RPMI 5 mM glucose + 10% FBS, 46.1 µM
[23] = RPMI 5 mM glucose + 10% dialyzed FBS, 0.000781 µM
[24] = RPMI 5 mM glucose + 10% dialyzed FBS, 0.00234 µM
[25] = RPMI 5 mM glucose + 10% dialyzed FBS, 0.00702 µM
[26] = RPMI 5 mM glucose + 10% dialyzed FBS, 0.0211 µM
[27] = RPMI 5 mM glucose + 10% dialyzed FBS, 0.0632 µM
[28] = RPMI 5 mM glucose + 10% dialyzed FBS, 0.19 µM
[29] = RPMI 5 mM glucose + 10% dialyzed FBS, 0.569 µM
[30] = RPMI 5 mM glucose + 10% dialyzed FBS, 1.71 µM
[31] = RPMI 5 mM glucose + 10% dialyzed FBS, 5.12 µM
[32] = RPMI 5 mM glucose + 10% dialyzed FBS, 15.4 µM
[33] = RPMI 5 mM glucose + 10% dialyzed FBS, 46.1 µM

| SMILES | cell viability [1] [%] | cell viability [2] [%] | cell viability [3] [%] | cell viability [4] [%] | cell viability [5] [%] | cell viability [6] [%] | cell viability [7] [%] | cell viability [8] [%] | cell viability [9] [%] | cell viability [10] [%] | cell viability [11] [%] | cell viability [12] [%] | cell viability [13] [%] | cell viability [14] [%] | cell viability [15] [%] | cell viability [16] [%] | cell viability [17] [%] | cell viability [18] [%] | cell viability [19] [%] | cell viability [20] [%] | cell viability [21] [%] | cell viability [22] [%] | cell viability [23] [%] | cell viability [24] [%] | cell viability [25] [%] | cell viability [26] [%] | cell viability [27] [%] | cell viability [28] [%] | cell viability [29] [%] | cell viability [30] [%] | cell viability [31] [%] | cell viability [32] [%] | cell viability [33] [%] |
| --- | --- | --- | --- | --- | --- | --- | --- | --- | --- | --- | --- | --- | --- | --- | --- | --- | --- | --- | --- | --- | --- | --- | --- | --- | --- | --- | --- | --- | --- | --- | --- | --- | --- |
| NC1CCC(Nc2nc(Nc3ccc(C(=O)N4CCCCC4)cc3)c3ncn(-c4cccc(F)c4)c3n2)CC1 (stereo unspecified) | 110 | 112 | 115 | 117 | 112 | 126 | 120 | 121 | 124 | 137 | 134 | 116 | 119 | 120 | 125 | 120 | 128 | 125 | 124 | 126 | 139 | 123 | 112 | 108 | 120 | 119 | 121 | 123 | 118 | 118 | 129 | 139 | 130 |
| CCCCCCCCOc1ccccc1C(=O)Nc1ccc(C(=O)OCC[N+](C)(CC)CC)cc1 | 93.6 | 94.9 | 98.2 | 95.8 | 97.7 | 98.3 | 89.1 | 91.4 | 85.6 | 84.2 | 71.8 | 91.6 | 102 | 89.9 | 107 | 104 | 104 | 93.4 | 91.3 | 85.2 | 87.7 | 49 | 89.3 | 83.5 | 88.2 | 90.3 | 95 | 86.2 | 91 | 90.3 | 78.6 | 83.4 | 46.4 |
| CCNC(=O)Nc1ccc(-c2nc3c(c(N4CCOC[C@@H]4C)n2)CCN(C2COC2)C3)cc1 | 114 | 111 | 113 | 112 | 110 | 100 | 82.1 | 63.8 | 56.6 | 49.5 | 46.1 | 113 | 113 | 107 | 116 | 104 | 96.8 | 82.7 | 61.6 | 55.4 | 41.3 | 33.9 | 114 | 108 | 111 | 106 | 103 | 95.8 | 79.3 | 64.1 | 54.6 | 39.9 | 32.7 |
| Cn1cnc(-c2cc3nccc(Oc4ccc(NC(=S)NC(=O)Cc5ccccc5)cc4F)c3s2)c1 | 79 | 85.6 | 77.3 | 92.7 | 91.4 | 91.5 | 94.1 | 87.8 | 83.9 | 71.8 | 15.2 | 80.9 | 82.9 | 80.5 | 87.1 | 84.7 | 85.2 | 87.1 | 92.6 | 82.7 | 58.5 | 7.61 | 80.4 | 87.6 | 83.1 | 91.8 | 96.9 | 93.7 | 85.6 | 95.9 | 82.6 | 66.3 | 15.4 |
| O=C(NCCO[N+](=O)[O-])c1cccnc1 | 112 | 113 | 118 | 122 | 115 | 117 | 115 | 116 | 113 | 121 | 118 | 112 | 126 | 120 | 130 | 121 | 119 | 126 | 126 | 127 | 126 | 118 | 112 | 116 | 109 | 114 | 111 | 123 | 111 | 112 | 112 | 111 | 117 |
| COc1ccc(C(=O)CC(=O)c2ccc(C(C)(C)C)cc2)cc1 | 105 | 112 | 113 | 110 | 120 | 116 | 119 | 113 | 118 | 108 | 97.2 | 101 | 97.6 | 104 | 106 | 116 | 111 | 103 | 109 | 112 | 106 | 90.7 | 98.1 | 107 | 111 | 112 | 110 | 119 | 117 | 113 | 120 | 110 | 91.1 |
| NCCCC(O)(P(=O)(O)O)P(=O)(O)O.O.O.O.[Na+] | 109 | 113 | 123 | 114 | 114 | 112 | 102 | 97.9 | 68.3 | 45.1 | 19.7 | 120 | 116 | 119 | 119 | 119 | 121 | 112 | 107 | 85.5 | 64.9 | 51.4 | 121 | 121 | 125 | 120 | 117 | 120 | 109 | 97.3 | 76.3 | 46.4 | 35.6 |

Source: the supplement of paper PMC11451515
